The target of one data set is T1, p38 MAPK/MK2 (Homo sapiens, UniProt Q16539).
T1 construct: purchased Carna (p38α); Abcam (MK2) 04-152; 79910
Description: In vitro activity assay of p38 MAPK/MK2 (Z-LYTE kinase assay kit). Type of data set: biochemical. The conditions noted are these: active p38α, inactive MK2, Ser/Thr 4; 1-hour reaction at 20° C. Here is the method:
(§1) The inhibitory effect of the compound on p38 MAPK/MK2 was evaluated using the Z-LYTE kinase assay kit (Thermo, PV3177). The test compound was dissolved in DMSO to obtain a 10 mM stock solution and stored at −20° C. for future use. The initial concentration of the compound was […], with 1% DMSO, 5-fold serial dilution, 8 concentrations, and duplicate wells. […] After a 1-hour reaction at 20° C., Development Reagent A diluted 2048-fold was added to each well, followed by incubation at room temperature for 1 hour. The reaction was terminated by adding 5 μL of stop buffer, and the plate was read using a microplate reader (Ex. 400 nm, Em. 445 nm; Ex. 400 nm, Em. 520 nm). The concentration-effect curve was fitted using GraphPad Prism 8 software, and the compound concentration resulting in 50% inhibition, IC50, was calculated.

Another data set has as its target T2, p38 MAPK/MK5 (Homo sapiens, UniProt Q16539).
T2 construct: purchased Carna (p38α); Abcam (MK5) 04-152; 217826
Description: In vitro activity assay of p38 MAPK/MK5 (Z-LYTE kinase assay kit). In kind it is biochemical. The conditions noted are these: active p38α, inactive MK5, Ser/Thr 4; 4-hour reaction at 20° C. How it is done:
as §1, with “MAPK/MK5” for “MAPK/MK2”, “4-hour” for “1-hour”, “µL” for “μL”

Data set [1] has as its system TNF-α in human PBMC cells. Description: In vitro TNF-α activity assay in human PBMC cell supernatant (LPS, ELISA). In kind it is cell-based. The following applies: LPS 100 ng/mL, read-out: p38 MAPK/TNF-α IC50. How it is done:
The inhibitory effect of the compound on TNF-α in the supernatant of human PBMC cells was evaluated using an ELISA detection kit (Beyotime, PI518). The test compound was dissolved in DMSO to obtain a 10 mM stock solution and stored at −20° C. for future use. The initial concentration of the compound was […], followed by 5-fold serial dilution to obtain 6 concentrations. Cells were plated in duplicate, and ELISA was performed in single wells. The final concentration of DMSO was 0.4%. Alternatively, the initial concentration of the compound, dilution factor, number of concentration gradients, and replicates could be adjusted based on the specific screening conditions.
Fresh human peripheral blood mononuclear cells (PBMCs) (Sailybio) were seeded at a density of 2×10^5 cells per well in a 96-well plate (Corning, 3599), with each well containing 100 μL of RPMI-1640 (Gibco #A1049101)+10% FBS (Gibco, 10099141C), and incubated overnight at 37° C. under 5% CO2. Test compounds were added to the 96-well culture plate at a volume of 25 μL per well. After 1 hour, 5 μL of LPS was added to achieve a final concentration of 100 ng/mL. No LPS and compound were added to the negative control wells, and no compound was added to the positive control wells. The mixture was further incubated for 24 hours at 37° C. under 5% CO2. Subsequently, the cell culture supernatant was collected by centrifugation at 500 rcf for 8 minutes. The concentration of TNF-α was measured according to the operation manual of the ELISA kit. The concentration-effect curve was fitted using GraphPad Prism 8 software, and the compound concentration resulting in 50% inhibition, IC50, was calculated.

Data set [2] in a line: Pharmacokinetic evaluation in mice. In kind it is in vivo. The conditions noted are these: mouse, plasma; for AUC(0-t): read-out: Area under curve AUC0-24 h; for clearance: read-out: Clearance CL (converted); for half-life: read-out: Half-life T1/2 (converted); for C0: read-out: Initial concentration C0; for Vd: read-out: Volume of distribution Vd; for bioavailability: read-out: Bioavailability F %; for Cmax: read-out: Maximum concentration Cmax. How it is done: The compound was weighed and dissolved in a mixed solvent of DMAC: Solutol: PBS (1:1:8. After intravenous/gastric administration to mice, whole blood ([…]) was collected at 0.083, 0.25, 0.5, 1, 2, 4, 7, and 24 hours. The samples were anticoagulated with EDTA-K2, immediately centrifuged at 4000 rpm for 5 minutes at 4° C., and the supernatant was frozen in a −80° C. refrigerator. Plasma sample processing: The samples were precipitated with an internal standard-containing CH3CN precipitant, followed by centrifugation at 12700 rpm for 10 min. The supernatant was collected and analyzed by LC-MS/MS (AB Triple Quard 5500) to obtain the plasma drug concentration. The parameters were calculated using a non-compartmental model in Winnolin version 8.1.

For another data set, the target named is T3, p38 MAPK/ATF2 (Homo sapiens, UniProt Q16539).
T3 construct: purchased Carna Biosciences (p38α); Sino Biological (ATF2) 04-152; 11599-H20B
Description: In vitro activity assay of p38 MAPK/ATF2 (HTRF). In kind it is biochemical. The conditions noted are these: p38α, Human ATF2 Protein, ATP; 35 min at 20° C. Here is the method: The inhibitory effect of the compound on p38a-catalyzed ATF2 was evaluated by the HTRF method. The test compound was dissolved in DMSO to obtain a 10 mM stock solution and stored at −20° C. for future use. The initial concentration of the compound was 10 μM, with 0.25% DMSO, 5-fold serial dilution, 8 concentrations, and duplicate wells. The reaction buffer, consisting of 40 mM Tris pH 7.5, 20 mM MgCl2, 0.1 mg/mL BSA, and 50 μM DTT, was used to prepare 3.5×p38α (MAPK14, Carna Biosciences, 04-152) protein working solution, 3.5×Human ATF2 Protein (Sino Biological, 11599-H20B) working solution, and 3.5×ATP working solution. The reaction was terminated with 10 mM EDTA. The final 14 μL reaction system was performed in a 96-well plate (cisbio, 66PL96025), containing 0.29 ng/μL p38a, […] Human ATF2 Protein, and 25 µM ATP. After reacting at 20° C. for 35 min, the pre-prepared antibody solution (cibio, 63ADK015PEG, Phospho-ATF2 Eu Cryptate antibody, Phospho-ATF2 d2 antibody, diluted 40-fold with Detection buffer) was added to each well and incubated overnight at room temperature. The samples were then measured using a microplate reader (HTRF compatible reader). The concentration-effect curve was fitted using GraphPad Prism 8 software, and the compound concentration resulting in 50% inhibition, IC50, was calculated.
Background: TR-FRET usually uses a lanthanide donor and a delayed reading to cut background.

The nature of data set [3]: In vitro liver microsome stability, rat. Type of data set: in vitro ADME. The conditions noted are these: liver microsomes, 0.5 mg/mL microsomes, 1 μM compound, NADPH, 37° C., read-out: Rat liver microsomes Half-life T1/2. How it is done:
(§2) The reference compound used in this experiment was Ketanserin, and the final concentration of microsomes in the experimental system was 0.5 mg/mL. The PBS buffer was a 50 mM K2HPO4 buffer. The concentration of the test compound was 1 μM. The microsomes were added to PBS, and the control/test compounds were respectively added to the corresponding reaction systems, mixed thoroughly, and pre-incubated in a 37° C. water bath for 5 minutes. The reaction was initiated by adding 20 mM NADPH solution under 37° C. water bath conditions (for the No NADPH samples, an equal volume of PBS solution was used as a substitute for the 20 mM NADPH solution). At the reaction time points of 0 min, 10 min, 30 mun, 60 min, and 90 min, 30 μL of reaction samples were taken from each reaction system (for the No NADPH samples, sampling was performed at 0 min and 90 min), and the reaction was immediately terminated by adding 300 μL of the internal standard acetonitrile solution. After centrifugation at 4000 rpm, the supernatant was taken and mixed thoroughly with an equal volume of pure water. The samples at each time point were analyzed by LC-MS/MS (AB Triple Quard 5500) to determine the compound content, and the T1/2 was calculated.

A short description of data set [4]: In vitro liver microsome stability, human. Type of data set: in vitro ADME. The conditions noted are these: liver microsomes, 0.5 mg/mL microsomes, 1 μM compound, NADPH, 37° C., read-out: Human liver microsomes Half-life T1/2. How it is done: as §2
For orientation: Liver microsomes are a subcellular fraction often used to study metabolism.

Data set [5] can be described thus: In vitro liver microsome stability, mouse. The following applies: liver microsomes, 0.5 mg/mL microsomes, 1 μM compound, NADPH, 37° C., read-out: Mouse liver microsomes Half-life T1/2. Type of data set: in vitro ADME. How it is done: as §2
Setting [6] is: intravenous injection group 1 mg/kg.
Setting [7] is: po, intragastric administration group 5 mg/kg.

Data on eight molecules can be found in patent publication US20260217652A1, “PHENYL-SUBSTITUTED HETEROARYL COMPOUND AND PHARMACEUTICAL COMPOSITION COMPRISING SAME, PREPARATION METHOD THEREFOR AND USE THEREOF” (SHANGHAI MEIYUE BIOTECH DEVELOPMENT CO., LTD., priority 2023, published 2026).

SMILES strings stand for the structures. Like-named read-outs stand apart in the source and are kept apart here.

Usually clearance stands for the volume of plasma or blood freed of the substance per unit of time. For orientation: Vd means a proportionality between amount in the body and measured concentration, not a real space. As a reminder, the bioavailability is dose-corrected exposure relative to a reference, in per cent.

T2 sequence (Q16539 whole entry): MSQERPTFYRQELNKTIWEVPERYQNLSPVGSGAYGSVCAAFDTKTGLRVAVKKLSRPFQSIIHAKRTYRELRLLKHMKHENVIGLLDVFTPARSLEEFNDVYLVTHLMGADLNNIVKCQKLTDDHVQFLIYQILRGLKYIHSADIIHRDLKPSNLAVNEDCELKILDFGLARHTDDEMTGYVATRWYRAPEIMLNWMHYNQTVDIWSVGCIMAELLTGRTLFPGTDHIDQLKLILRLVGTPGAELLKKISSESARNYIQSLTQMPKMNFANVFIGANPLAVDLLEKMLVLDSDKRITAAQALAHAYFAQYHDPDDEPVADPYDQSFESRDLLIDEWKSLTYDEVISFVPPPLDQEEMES
T1 sequence (Q16539 whole entry): as above
T1 sequence (P49137 whole entry partner): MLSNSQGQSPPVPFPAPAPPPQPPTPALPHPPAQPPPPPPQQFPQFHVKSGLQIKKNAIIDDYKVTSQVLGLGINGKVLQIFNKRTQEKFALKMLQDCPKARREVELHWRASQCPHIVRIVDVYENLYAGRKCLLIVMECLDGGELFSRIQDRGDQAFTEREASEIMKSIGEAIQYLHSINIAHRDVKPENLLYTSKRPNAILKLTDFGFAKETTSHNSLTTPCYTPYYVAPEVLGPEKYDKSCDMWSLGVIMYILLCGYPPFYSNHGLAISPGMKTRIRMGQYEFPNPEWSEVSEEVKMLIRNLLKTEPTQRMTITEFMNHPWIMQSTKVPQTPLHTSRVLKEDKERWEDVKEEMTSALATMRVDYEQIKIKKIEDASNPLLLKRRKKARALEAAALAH

Take `Cc1cnc(-c2cccc(C(=O)N(C)C)c2)c(F)c1-n1c(C)cc(OCc2ncc(F)cc2F)c(Cl)c1=O` [Compound 32]: the IC50 amounted to 3.65 nM against p38 MAPK/MK2, 6250 nM against p38 MAPK/MK5 and 2.89 nM in data set [1] (24 hours).

`Cc1cnc(-c2cccc(C(=O)N(C)C)c2)c(F)c1-n1c(C)cc(OCc2ncc(F)cc2F)c(Cl)c1=O` (single isomer, unassigned) [Compound 32-P1]: in data set [2] (setting [6]), the AUC(0-t) was 842 ng·h/mL, the clearance is 21.1 mL/min/kg, the half-life is 0.35 h and the C0 worked out at 1790 ng/mL. The Vd in data set [2] (setting [6]) came out at 0.49 L/kg. Further, in data set [2] (setting [7]), the AUC(0-t) was determined as 2350 ng·h/mL, the bioavailability is 57.9%, the half-life was 1.54 h and the Cmax came to 1610 ng/mL. The molecule further gave an IC50 at p38 MAPK/ATF2 of 3650 nM. At p38 MAPK/MK2, this molecule registered an IC50 of 0.51 nM. The IC50 at p38 MAPK/MK5 amounted to 1650 nM. Also, in data set [1] (Homo sapiens, PBMC, 24 h), the IC50 was determined as 3.21 nM.

On to `Cc1cnc(-c2cccc([C@@](C)(O)CO)c2F)cc1-n1c(C)cc(OCc2ncc(F)cc2F)c(Cl)c1=O` [Compound 35-P1], for which the IC50 against p38 MAPK/MK2 is 1.44 nM; on p38 MAPK/MK5, 4670 nM; in data set [1] (Homo sapiens, PBMC, 24 h) it was 1.9 nM. Further, the half-life at 1 μM in data set [3], in data set [4] and in data set [5] was more than 4.66 h throughout.

As to `Cc1cnc(-c2cccc(C(N)=O)c2)c(F)c1-n1c(C)cc(OCc2ncc(F)cc2F)c(Cl)c1=O` [Compound 30-P1], in data set [2] (setting [6]), the AUC(0-t) turned out to be 1100 ng·h/mL, the clearance is 15.2 mL/min/kg, the half-life is 0.47 h and the C0 came out at 2410 ng/mL. The Vd in data set [2] (setting [6]) worked out at 0.41 L/kg. Besides, in data set [2] (setting [7]), the AUC(0-t) turned out to be 2640 ng·h/mL, the bioavailability was determined as 48%, the half-life is 3.31 h and the Cmax was 1570 ng/mL. The molecule further returned an IC50 on p38 MAPK/MK2 of 0.16 nM. The molecule also displayed an IC50 against p38 MAPK/MK5 of 5660 nM. Further, the IC50 in data set [1] (Homo sapiens, PBMC, 24 h) turned out to be 8.68 nM.

For `Cc1cnc(-c2cccc(C(N)=O)c2)cc1-n1c(C)cc(OCc2ncc(F)cc2F)c(Cl)c1=O` [Compound 4], the IC50 was more than 20000 nM against p38 MAPK/ATF2; 50.5 nM against p38 MAPK/MK2; 6590 nM against p38 MAPK/MK5; 96.7 nM in data set [1] (Homo sapiens, PBMC, 24 h). Moreover, the half-life at 1 μM in data set [3] is more than 4.66 h; in data set [4], more than 4.66 h; in data set [5], 2.93 h.

With `Cc1cnc(-c2cccc(C(=O)O)c2)cc1-n1c(C)cc(OCc2ncc(F)cc2F)c(Cl)c1=O` [Compound 1], the IC50 against p38 MAPK/ATF2 was more than 20000 nM; on p38 MAPK/MK2, 58.6 nM; at p38 MAPK/MK5, 6080 nM. In addition, the half-life at 1 μM in data set [3], in data set [4] and in data set [5] was more than 4.66 h in each case.

As to `Cc1cnc(-c2cccc(C(=O)N(C)C)c2)cc1-n1c(C)cc(OCc2ncc(F)cc2F)c(Cl)c1=O` [Compound 3], the IC50 is 21.7 nM on p38 MAPK/MK2 and more than 10000 nM on p38 MAPK/MK5.

Take `Cc1cnc(-c2cccc(C(=O)O)c2)c(F)c1-n1c(C)cc(OCc2ncc(F)cc2F)c(Cl)c1=O` [Compound 29-P1]: in data set [2] (setting [6]), the AUC(0-t) amounted to 1390 ng·h/mL, the clearance was 10.4 mL/min/kg, the half-life is 2.57 h and the C0 worked out at 1450 ng/mL. Besides, in data set [2] (setting [6]), the Vd came out at 1.83 L/kg. In data set [2] (setting [7]), the AUC(0-t) turned out to be 6490 ng·h/mL, the bioavailability stood at 80.6%, the half-life is 3.37 h and the Cmax was determined as 1380 ng/mL. The IC50 on p38 MAPK/ATF2 worked out at 1150 nM. On p38 MAPK/MK2, this molecule came in with an IC50 of 4.86 nM. For the same molecule, the half-life at 1 μM in data set [3] was more than 4.66 h. The half-life at 1 μM in data set [4] is more than 4.66 h. Also, the half-life at 1 μM in data set [5] is more than 4.66 h.
